Results reported in ChEMBL document CHEMBL1909046, “DrugMatrix in vitro pharmacology data”.

How the values were obtained:
Acetylcholinesterase = Acetylcholinesterase (Homo sapiens, UniProt P22303); assay: DRUGMATRIX: Acetylcholinesterase enzyme inhibition (substrate: acetylthiocholine); assay type: cell-based, HEK293; settings: hek293; Not Active = under 50% inhibition at 10 µM
[1] = molecular target: Aldo-keto reductase family 1 member B1 (Rattus norvegicus, UniProt P07943); assay: biochemical; assay type: tissue-based, Lens of camera-type eye;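 further: inhibition of aldose reductase enzyme activity, measured with DL-glyceraldehyde as the substrate; in other assays of this panel Not Active means under 50% inhibition at 10 µM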
Vasopressin V1a receptor = Vasopressin V1a receptor (Homo sapiens, UniProt P37288); assay type: cell membranes, Membrane; settings: hek293; further: in other assays of this panel Not Active means under 50% inhibition at 10 µM
[2] = molecular target: C-C chemokine receptor type 2 (Homo sapiens, UniProt P41597); assay type: cell membranes, Membrane; settings: cho-k1; further: in other assays of this panel Not Active means under 50% inhibition at 10 µM
[3] = molecular target: Beta-2 adrenergic receptor (Homo sapiens, UniProt P07550); assay: DRUGMATRIX: Adrenergic beta2 radioligand binding (ligand: [3H] CGP-12177); assay type: cell membranes, CHO, Membrane; settings: Not Active = under 50% inhibition at 10 µM
[4] = DRUGMATRIX: Platelet-Derived Growth Factor (PDGF) radioligand binding (ligand: [125I] PDGF); assay type: cell-based; settings: nih3t3; Not Active = under 50% inhibition at 10 µM
Melanocortin receptor 5 = Melanocortin receptor 5 (Homo sapiens, UniProt P33032); assay type: cell membranes, HEK293, Membrane; settings: hek293; further: in other assays of this panel Not Active means under 50% inhibition at 10 µM
Sequence of Melanocortin receptor 5 (P33032 whole entry): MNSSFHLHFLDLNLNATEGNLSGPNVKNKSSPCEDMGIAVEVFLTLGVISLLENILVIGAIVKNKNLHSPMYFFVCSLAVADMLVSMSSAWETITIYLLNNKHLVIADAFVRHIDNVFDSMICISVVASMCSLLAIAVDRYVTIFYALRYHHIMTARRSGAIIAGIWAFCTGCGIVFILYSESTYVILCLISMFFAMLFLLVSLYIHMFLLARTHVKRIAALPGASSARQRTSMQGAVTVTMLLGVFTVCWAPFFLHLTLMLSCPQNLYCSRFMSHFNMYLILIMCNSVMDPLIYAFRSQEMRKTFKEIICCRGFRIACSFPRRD

Sequence of Acetylcholinesterase (P22303 whole entry): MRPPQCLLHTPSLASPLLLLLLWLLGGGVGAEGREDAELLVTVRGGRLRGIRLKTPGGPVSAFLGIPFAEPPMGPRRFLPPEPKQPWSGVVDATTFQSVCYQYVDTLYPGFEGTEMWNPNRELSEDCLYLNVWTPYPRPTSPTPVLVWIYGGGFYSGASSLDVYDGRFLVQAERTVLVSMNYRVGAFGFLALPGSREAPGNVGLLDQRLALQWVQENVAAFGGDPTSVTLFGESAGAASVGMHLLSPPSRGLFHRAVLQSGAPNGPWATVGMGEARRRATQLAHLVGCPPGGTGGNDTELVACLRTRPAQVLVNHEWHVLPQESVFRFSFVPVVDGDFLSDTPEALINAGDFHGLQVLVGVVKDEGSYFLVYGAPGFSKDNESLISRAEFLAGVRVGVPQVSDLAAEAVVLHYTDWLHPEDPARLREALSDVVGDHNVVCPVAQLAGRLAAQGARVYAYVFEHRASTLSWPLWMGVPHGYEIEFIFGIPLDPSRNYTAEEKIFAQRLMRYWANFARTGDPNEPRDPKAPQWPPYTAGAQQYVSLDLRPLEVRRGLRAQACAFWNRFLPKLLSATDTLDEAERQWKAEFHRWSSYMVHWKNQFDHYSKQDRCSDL
Sequence of Vasopressin V1a receptor (P37288 whole entry): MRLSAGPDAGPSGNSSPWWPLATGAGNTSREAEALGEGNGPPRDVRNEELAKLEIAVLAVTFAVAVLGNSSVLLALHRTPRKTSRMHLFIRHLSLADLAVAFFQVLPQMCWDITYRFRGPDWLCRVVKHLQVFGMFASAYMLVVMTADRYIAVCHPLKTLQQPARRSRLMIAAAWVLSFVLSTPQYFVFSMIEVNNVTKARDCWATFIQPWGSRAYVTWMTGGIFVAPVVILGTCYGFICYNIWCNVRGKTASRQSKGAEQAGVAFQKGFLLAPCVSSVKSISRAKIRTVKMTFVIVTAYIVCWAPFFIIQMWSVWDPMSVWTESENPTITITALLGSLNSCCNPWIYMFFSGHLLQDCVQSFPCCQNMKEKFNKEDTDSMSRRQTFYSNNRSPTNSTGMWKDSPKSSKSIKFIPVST
Sequence of Beta-2 adrenergic receptor (P07550 whole entry): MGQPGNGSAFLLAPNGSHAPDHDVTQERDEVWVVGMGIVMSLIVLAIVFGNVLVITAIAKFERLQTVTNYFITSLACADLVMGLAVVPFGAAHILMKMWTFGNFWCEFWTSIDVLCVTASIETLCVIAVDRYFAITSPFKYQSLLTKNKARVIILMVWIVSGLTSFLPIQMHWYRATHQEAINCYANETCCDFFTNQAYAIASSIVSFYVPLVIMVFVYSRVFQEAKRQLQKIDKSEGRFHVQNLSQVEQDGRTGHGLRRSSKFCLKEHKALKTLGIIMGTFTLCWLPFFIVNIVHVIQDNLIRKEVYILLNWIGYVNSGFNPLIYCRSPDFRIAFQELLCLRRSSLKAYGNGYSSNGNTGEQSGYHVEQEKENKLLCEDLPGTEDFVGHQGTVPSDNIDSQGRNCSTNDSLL
Sequence of C-C chemokine receptor type 2 (P41597 whole entry): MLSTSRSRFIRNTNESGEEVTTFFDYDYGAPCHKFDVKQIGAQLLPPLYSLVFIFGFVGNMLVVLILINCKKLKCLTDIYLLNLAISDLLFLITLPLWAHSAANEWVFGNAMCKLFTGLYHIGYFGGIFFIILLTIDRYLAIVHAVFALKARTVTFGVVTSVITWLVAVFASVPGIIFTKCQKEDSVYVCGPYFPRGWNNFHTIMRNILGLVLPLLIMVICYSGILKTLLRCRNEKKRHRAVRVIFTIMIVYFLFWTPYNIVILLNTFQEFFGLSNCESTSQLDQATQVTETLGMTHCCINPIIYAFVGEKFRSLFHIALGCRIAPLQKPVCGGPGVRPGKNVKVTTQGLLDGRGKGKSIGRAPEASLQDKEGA

Row | Structure (SMILES) | IC50 (Acetylcholinesterase) | IC50 [1] | IC50 (Vasopressin V1a receptor) | IC50 [2] | IC50 ([3]; cho) | IC50 [4] | Ki [4] | IC50 (Melanocortin receptor 5) | IC50 ([3]; read-out: IC50) [nM] | Ki ([3]; read-out: Ki) [nM]
1 | CCCNC(C)C(=O)Nc1ccccc1C (stereo unspecified) [PRILOCAINE] | Not Active | Not Active | Not Active | Not Active | Not Active | Not Active | Not Active | Not Active | – | –
2 | NS(=O)(=O)c1cc(C2(O)NC(=O)c3ccccc32)ccc1Cl (stereo unspecified) [CHLORTHALIDONE] | Not Active | Not Active | Not Active | Not Active | Not Active | Not Active | Not Active | Not Active | – | –
3 | CCN(CC)CCCC(C)Nc1c2ccc(Cl)cc2nc2ccc(OC)cc12 (stereo unspecified) [QUINACRINE] | – | Not Active | Not Active | Not Active | Not Active | Not Active | Not Active | Not Active | – | –
4 | CN1CCC(=C2c3ccccc3CC(=O)c3sccc32)CC1 [KETOTIFEN] | Not Active | Not Active | Not Active | Not Active | Not Active | Not Active | Not Active | Not Active | – | –
5 | Cc1c(O)cccc1C(=O)N[C@@H](CSc1ccccc1)[C@H](O)CN1C[C@H]2CCCC[C@H]2C[C@H]1C(=O)NC(C)(C)C | Not Active | Not Active | Not Active | Not Active | Not Active | Not Active | Not Active | Not Active | – | –
6 | Cn1c(=O)c2c(ncn2C)n(C)c1=O [CAFFEINE] | Not Active | Not Active | Not Active | Not Active | Not Active | Not Active | Not Active | Not Active | – | –
7 | CC(C)NCC(O)c1ccccc1Cl (stereo unspecified) [CLORPRENALINE] | Not Active | Not Active | Not Active | Not Active | – | Not Active | Not Active | Not Active | 1990 | 1370
8 | NC(=O)c1cccnc1 [NIACINAMIDE] | Not Active | Not Active | Not Active | Not Active | Not Active | Not Active | Not Active | Not Active | – | –
9 | C[C@]12C=CC(=O)C=C1CC[C@H]1[C@@H]3C[C@@H](O)[C@](O)(C(=O)CO)[C@@]3(C)C[C@H](O)[C@@]12F [TRIAMCINOLONE] | Not Active | Not Active | Not Active | Not Active | Not Active | Not Active | Not Active | Not Active | – | –
10 | CC(=O)OCC(=O)[C@@]1(O)CC[C@H]2[C@@H]3CCC4=CC(=O)CC[C@]4(C)[C@@]3(F)[C@@H](O)C[C@@]21C [FLUDROCORTISONE ACETATE] | Not Active | Not Active | Not Active | Not Active | Not Active | Not Active | Not Active | Not Active | – | –
11 | CN(C)C(=O)Oc1cccc([N+](C)(C)C)c1.[Br-] [NEOSTIGMINE BROMIDE] | – | Not Active | Not Active | Not Active | Not Active | Not Active | Not Active | Not Active | – | –
12 | C[C@]12CC[C@@H]3c4ccc(O)cc4CC[C@H]3[C@@H]1C[C@@H](O)[C@@H]2O [ESTRIOL] | Not Active | Not Active | Not Active | Not Active | Not Active | Not Active | Not Active | Not Active | – | –
13 | CCN(CC)CCNC(=O)c1ccc(N)cc1 [PROCAINAMIDE] | Not Active | Not Active | Not Active | Not Active | Not Active | Not Active | Not Active | Not Active | – | –
14 | O=C(O)P(=O)(O)O [FOSCARNET] | Not Active | Not Active | Not Active | Not Active | Not Active | Not Active | Not Active | Not Active | – | –
15 | C[C@H]1[C@H](NC(=O)/C(=N\OC(C)(C)C(=O)O)c2csc(N)n2)C(=O)N1S(=O)(=O)O [AZTREONAM] | Not Active | Not Active | Not Active | Not Active | Not Active | Not Active | Not Active | Not Active | – | –
16 | CN1C[C@@H]2C[C@H]1CN2c1cc2c(cc1F)c(=O)c(C(=O)O)cn2C1CC1 [DANOFLOXACIN] | Not Active | Not Active | Not Active | Not Active | Not Active | Not Active | Not Active | Not Active | – | –
17 | CC(=O)OCC(=O)[C@@]12OC(C)(C)O[C@@H]1C[C@H]1[C@@H]3C[C@H](F)C4=CC(=O)C=C[C@]4(C)[C@@]3(F)[C@@H](O)C[C@@]12C [FLUOCINONIDE] | Not Active | Not Active | Not Active | Not Active | Not Active | Not Active | Not Active | Not Active | – | –
18 | CN1CCCC(CN2c3ccccc3Sc3ccccc32)C1 (stereo unspecified) [MEPAZINE] | Not Active | Not Active | Not Active | Not Active | Not Active | Not Active | Not Active | Not Active | – | –
19 | NCCCNCCSP(=O)(O)O [AMIFOSTINE] | Not Active | Not Active | Not Active | Not Active | Not Active | Not Active | Not Active | Not Active | – | –
20 | CC[C@]1(O)C[C@@H]2CN(CCc3c([nH]c4ccccc34)[C@@](C(=O)OC)(c3cc4c(cc3OC)N(C)[C@H]3[C@@](O)(C(N)=O)[C@H](O)[C@]5(CC)C=CCN6CC[C@]43[C@@H]65)C2)C1 [VINDESINE] | Not Active | Not Active | Not Active | Not Active | Not Active | Not Active | Not Active | Not Active | – | –
21 | CCn1cc(C(=O)O)c(=O)c2cc(F)c(N3CCNC(C)C3)c(F)c21 (stereo unspecified) [LOMEFLOXACIN] | Not Active | Not Active | Not Active | Not Active | Not Active | Not Active | Not Active | Not Active | – | –
22 | CN1CCN(c2c(F)cc3c(=O)c(C(=O)O)cn(CCF)c3c2F)CC1 [FLEROXACIN] | Not Active | Not Active | Not Active | Not Active | Not Active | Not Active | Not Active | Not Active | – | –
23 | CC(C)(C(=O)O)c1ccc(C(O)CCCN2CCC(C(O)(c3ccccc3)c3ccccc3)CC2)cc1 (stereo unspecified) [FEXOFENADINE] | Not Active | Not Active | Not Active | Not Active | Not Active | Not Active | Not Active | Not Active | – | –
24 | C[C@H]1COc2c(N3CCN(C)CC3)c(F)cc3c(=O)c(C(=O)O)cn1c23.C[C@H]1COc2c(N3CCN(C)CC3)c(F)cc3c(=O)c(C(=O)O)cn1c23.O [LEVOFLOXACIN] | Not Active | Not Active | Not Active | Not Active | Not Active | Not Active | Not Active | Not Active | – | –
